What was measured:
[1] = tested on: PSMA-negative PC-3 flu tumor cells; test: Cell uptake, PSMA-negative cells; type: cell-based; details: after 4 h
From the text: (§1) Cell uptake and internalization of ^177Lu-Ibu-PSMA, ^177Lu-Ibu-Dα-PSMA, ^177Lu-Ibu-Dβ-PSMA, ^177Lu-Ibu-N-PSMA and ^177Lu-Ibu-DAB-PSMA were investigated using PSMA-positive PC-3 PIP and PSMA-negative PC-3 flu tumor cells kindly provided by Prof. Dr. Martin Pomper (John Hopkins Institutions, Baltimore, U.S.; Eiber, M.; Fendler, W. P.; Rowe, S. P.; Calais, J.; Hofman, M. S.; Maurer, T.; Schwarzenboeck, S. M.; Kratowchil, C.; Herrmann, K.; Giesel, F. L. Prostate-specific membrane antigen ligands for imaging and therapy. J Nucl Med 2017, 58, (Suppl 2), 67S-76S). Each radioligand was investigated by the performance of experiments performed 3 times in triplicate with PC-3 PIP tumor cell and once in triplicate with PC-3 flu tumor cells.
(§2) Cell uptake and internalization of ^177Lu-Ibu-sPSMA were investigated using PSMA-positive PC-3 PIP and PSMA-negative PC-3 flu tumor cells kindly provided by Prof. Dr. Martin Pomper (Johns Hopkins University School of Medicine, Baltimore, Md., U.S.A.) (Eiber, et al.; J Nucl Med 2017, 58, (Suppl 2), 67S-76S). ^177Lu-Ibu-sPSMA was investigated by performing experiments 3 times in 6 replicates with PC-3 PIP tumor cells and 3 times in 6 replicates with PC-3 flu tumor cells.

[2] = tested on: PSMA-positive PC-3 PIP tumor cells; test: Cell uptake and internalization, PSMA-positive cells; type: cell-based
From the text: as §1, §2

PSMA = target: T1, PSMA (Homo sapiens, UniProt Q04609); test: Determination of KD values (PSMA-binding affinity); details: PSMA-binding affinity of the 177Lu radioligand
T1 construct: expressed in transfected cells; host or cells: PC-3 PIP (PSMA-transfected PC-3 human prostate cancer cells), from Prof; Martin Pomper
Method: The KD values, indicating the PSMA-binding affinity of the novel radioligand, were determined.

[3] = tested on: PC-3 PIP/flu tumor-bearing mice; test: Biodistribution study in PC-3 PIP/flu tumor-bearing mice; type: in vivo, athymic nude Balb/c mice; details: for Blood / Bone / Heart / Intestines / Kidneys / Liver / Lung / Muscle / Salivary glands / Spleen / Stomach / Tumor-to-blood / Tumor-to-kidney / Tumor-to-liver: PC-3 PIP/flu tumor-bearing mice; for PC-3 flu Tumor: PSMA-negative tumor xenograft; for PC-3 flu Tumor / PC-3 PIP Tumor: mice; for PC-3 PIP Tumor: PSMA-positive tumor xenograft
Method: In vivo experiments were approved by the local veterinarian department and conducted in accordance with the Swiss law of animal protection. Mice were obtained from Charles River Laboratories, Sulzfeld, Germany, at the age of 5-6 weeks. Female, athymic nude Balb/c mice were subcutaneously inoculated with PSMA-positive PC-3 PIP cells (6×10^6 cells in 100 μL Hank's balanced salt solution (HBSS) with Ca^2+/Mg^2+) on the right shoulder and with PSMA-negative PC-3 flu cells (5×10^6 cells in 100 μL HBSS Ca^2+/Mg^2+) on the left shoulder. Two weeks later, the tumors reached a size of about 80-300 mm^3 suitable for the performance of the biodistribution studies.
Biodistribution studies were performed 12-15 days after PC-3 PIP/flu tumor cell inoculation. […] The radioligands were injected in a lateral tail vein in a volume of 100-200 μL. Mice were euthanized at different time points after injection (p.i.) of the radioligands. Selected tissues and organs were collected, weighed and measured using a γ-counter. The results were decay-corrected and listed as a percentage of the injected activity per gram of tissue mass (% IA/g) (Table 3 and 4).
Mice were obtained from Charles River Laboratories, Sulzfeld, Germany, at the age of 5-6 weeks. Female, athymic nude BALB/c mice were subcutaneously inoculated with PSMA-positive PC-3 PIP cells (6×10^6 cells in 100 μL Hank's balanced salt solution (HBSS)) on the right shoulder and with PSMA-negative PC-3 flu cells (5×10^6 cells in 100 μL HBSS) on the left shoulder. Two weeks later, the tumors reached a size of about 80-300 mm^3 suitable for the performance of the biodistribution and imaging studies.
Biodistribution studies were performed 12-15 days after PC-3 PIP/flu tumor cell inoculation. ^177Lu-Ibu-sPSMA was diluted in 0.9% NaCl containing 0.05% bovine serum albumin (BSA) to prevent adhesion to the vial and syringe material. The radioligand was injected in a lateral tail vein in a volume of 100 μL. Mice were euthanized at different time points after injection (p.i.) of the radioligand. Selected tissues and organs were collected, weighed and measured using a γ-counter. The results were decay-corrected and listed as a percentage of the injected activity per gram of tissue mass (% IA/g) (Table 6, FIG. 18).

T1 sequence (Q04609 whole entry): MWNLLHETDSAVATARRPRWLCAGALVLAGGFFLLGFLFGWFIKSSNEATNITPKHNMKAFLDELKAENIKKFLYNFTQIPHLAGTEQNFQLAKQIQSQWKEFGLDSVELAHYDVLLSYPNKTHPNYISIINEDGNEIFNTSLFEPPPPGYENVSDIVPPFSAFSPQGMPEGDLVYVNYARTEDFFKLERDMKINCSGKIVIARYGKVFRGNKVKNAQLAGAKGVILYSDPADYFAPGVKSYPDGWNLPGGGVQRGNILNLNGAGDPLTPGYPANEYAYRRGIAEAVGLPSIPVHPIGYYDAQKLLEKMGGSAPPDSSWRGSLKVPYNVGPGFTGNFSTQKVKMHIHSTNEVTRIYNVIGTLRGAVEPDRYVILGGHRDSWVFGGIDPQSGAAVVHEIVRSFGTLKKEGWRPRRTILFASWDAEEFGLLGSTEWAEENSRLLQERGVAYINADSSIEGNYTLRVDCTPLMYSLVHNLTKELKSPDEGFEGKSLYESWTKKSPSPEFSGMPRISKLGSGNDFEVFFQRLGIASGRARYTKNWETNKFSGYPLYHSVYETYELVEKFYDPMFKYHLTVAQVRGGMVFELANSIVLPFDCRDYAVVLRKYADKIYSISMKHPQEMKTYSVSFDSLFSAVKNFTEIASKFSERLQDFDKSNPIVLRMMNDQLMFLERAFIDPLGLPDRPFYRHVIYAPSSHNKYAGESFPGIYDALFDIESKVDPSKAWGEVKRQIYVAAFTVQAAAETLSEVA

Q: With `CC(C)Cc1ccc(C(C)C(=O)NCC[C@H](NC(=O)CN2CCN(CC(=O)O)CCN(CC(=O)O)CCN(CC(=O)O)CC2)C(=O)NCC2CCC(C(=O)N[C@@H](Cc3ccc4ccccc4c3)C(=O)NCCCC[C@H](NC(=O)N[C@@H](CCC(=O)O)C(=O)O)C(=O)O)CC2)cc1` (some centres unmarked) [^177Lu-Ibu-sPSMA, metal not drawn] as the molecule, how does the “uptake in PC-3 flu tumor cells” value [1] read?
A: < 0.1%

Q: What about the internalized fraction ([2]; 2 h incubation) of the same molecule?
A: 18%

Q: And the internalized fraction ([2]; 4 h incubation)?
A: 22%

Q: What about the Kd (PSMA) of the same molecule?
A: 40 ± 5 nM

Q: And the Blood ([3]; 1 h p.i.)?
A: 29±4 % IA/g

Q: And the Bone ([3]; 1 h p.i.)?
A: 3.3 ± 0.4 % IA/g

Q: What about the Heart ([3]; 1 h p.i.) of the same molecule?
A: 9.3 ± 1.5 % IA/g

Q: What about the Intestines ([3]; 1 h p.i.) of the same molecule?
A: 2.9 ± 0.3 % IA/g

Q: And the Kidneys ([3]; 1 h p.i.)?
A: 114±15 % IA/g

Q: What about the Liver ([3]; 1 h p.i.) of the same molecule?
A: 17±4 % IA/g

Q: And the Lung ([3]; 1 h p.i.)?
A: 17 ± 3 % IA/g

Q: What about the Muscle ([3]; 1 h p.i.) of the same molecule?
A: 3.1 ± 0.7 % IA/g

Q: What about the Salivary glands ([3]; 1 h p.i.) of the same molecule?
A: 6.6 ± 0.5 % IA/g

Q: And the Spleen ([3]; 1 h p.i.)?
A: 5.8 ± 1.2 % IA/g

Q: What about the Stomach ([3]; 1 h p.i.) of the same molecule?
A: 2.6 ± 0.5 % IA/g

Q: And the Tumor-to-blood ([3]; 1 h p.i.)?
A: 2.2 ± 0.1

Q: What about the Tumor-to-kidney ([3]; 1 h p.i.) of the same molecule?
A: 0.56±0.09

Q: What about the Tumor-to-liver ([3]; 1 h p.i.) of the same molecule?
A: 3.7 ± 0.5

Q: What about the “PC-3 flu Tumor” value ([3]; 1 h p.i.) of the same molecule?
A: 5.1 ± 0.7 % IA/g

Q: What about the “PC-3 PIP Tumor” value ([3]; 1 h p.i.) of the same molecule?
A: 63±8 % IA/g

Q: What about the Blood ([3]; 4 h p.i.) of the same molecule?
A: 7.2 ± 0.7 % IA/g

Q: And the Bone ([3]; 4 h p.i.)?
A: 1.1 ± 0.2 % IA/g

Q: And the Heart ([3]; 4 h p.i.)?
A: 2.4 ± 0.2 % IA/g

Q: What about the Intestines ([3]; 4 h p.i.) of the same molecule?
A: 1.1 ± 0.2 % IA/g

Q: What about the Kidneys ([3]; 4 h p.i.) of the same molecule?
A: 28 ± 2 % IA/g

Q: What about the Liver ([3]; 4 h p.i.) of the same molecule?
A: 7.2±0.5 % IA/g

Q: What about the Lung ([3]; 4 h p.i.) of the same molecule?
A: 4.9 ± 0.7 % IA/g

Q: What about the Muscle ([3]; 4 h p.i.) of the same molecule?
A: 0.84 ± 0.14 % IA/g

Q: And the Salivary glands ([3]; 4 h p.i.)?
A: 1.9 ± 0.2 % IA/g

Q: What about the Spleen ([3]; 4 h p.i.) of the same molecule?
A: 2.1 ± 0.3 % IA/g

Q: What about the Stomach ([3]; 4 h p.i.) of the same molecule?
A: 1.3 ± 0.9 % IA/g

Q: And the Tumor-to-blood ([3]; 4 h p.i.)?
A: 14 ± 3

Q: And the Tumor-to-kidney ([3]; 4 h p.i.)?
A: 3.6 ± 0.2

Q: What about the Tumor-to-liver ([3]; 4 h p.i.) of the same molecule?
A: 14 ± 2

Q: And the “PC-3 flu Tumor” value ([3]; 4 h p.i.)?
A: 2.0 ± 0.3 % IA/g

Q: And the “PC-3 PIP Tumor” value ([3]; 4 h p.i.)?
A: 99 ± 7 % IA/g

Q: And the Blood ([3]; 24 h p.i.)?
A: 0.76 ± 0.07 % IA/g

Q: What about the Bone ([3]; 24 h p.i.) of the same molecule?
A: 0.27 ± 0.04 % IA/g

Q: And the Heart ([3]; 24 h p.i.)?
A: 0.39 ± 0.04 % IA/g

Q: What about the Intestines ([3]; 24 h p.i.) of the same molecule?
A: 0.31 ± 0.07 % IA/g

Q: What about the Kidneys ([3]; 24 h p.i.) of the same molecule?
A: 10 ± 2 % IA/g

Q: And the Liver ([3]; 24 h p.i.)?
A: 0.81 ± 0.09 % IA/g

Q: What about the Lung ([3]; 24 h p.i.) of the same molecule?
A: 0.79 ± 0.07 % IA/g

Q: What about the Muscle ([3]; 24 h p.i.) of the same molecule?
A: 0.14 ± 0.02 % IA/g

Q: And the Salivary glands ([3]; 24 h p.i.)?
A: 0.37 ± 0.05 % IA/g

Q: And the Spleen ([3]; 24 h p.i.)?
A: 0.72 ± 0.15 % IA/g

Q: And the Stomach ([3]; 24 h p.i.)?
A: 0.50 ± 0.19 % IA/g

Q: What about the Tumor-to-blood ([3]; 24 h p.i.) of the same molecule?
A: 173 ± 18

Q: What about the Tumor-to-kidney ([3]; 24 h p.i.) of the same molecule?
A: 13 ± 2

Q: What about the Tumor-to-liver ([3]; 24 h p.i.) of the same molecule?
A: 163 ± 16

Q: And the “PC-3 flu Tumor” value ([3]; 24 h p.i.)?
A: 0.66 ± 0.07 % IA/g

Q: What about the “PC-3 PIP Tumor” value ([3]; 24 h p.i.) of the same molecule?
A: 132±15 % IA/g

Q: And the Blood ([3]; 96 h p.i.)?
A: 0.27 ± 0.02 % IA/g

Q: What about the Bone ([3]; 96 h p.i.) of the same molecule?
A: 0.08 ± 0.01 % IA/g

Q: What about the Heart ([3]; 96 h p.i.) of the same molecule?
A: 0.12 ± 0.01 % IA/g

Q: What about the Intestines ([3]; 96 h p.i.) of the same molecule?
A: 0.13 ± 0.03 % IA/g

Q: What about the Kidneys ([3]; 96 h p.i.) of the same molecule?
A: 2.3 ± 0.3 % IA/g

Q: What about the Liver ([3]; 96 h p.i.) of the same molecule?
A: 0.22 ± 0.02 % IA/g

Q: And the Lung ([3]; 96 h p.i.)?
A: 0.25 ± 0.03 % IA/g

Q: And the Muscle ([3]; 96 h p.i.)?
A: 0.04 ± 0.02 % IA/g

Q: And the Salivary glands ([3]; 96 h p.i.)?
A: 0.11 ± 0.02 % IA/g

Q: And the Spleen ([3]; 96 h p.i.)?
A: 0.22 ± 0.03 % IA/g

Q: What about the Stomach ([3]; 96 h p.i.) of the same molecule?
A: 0.73 ± 0.82 % IA/g

Q: And the Tumor-to-blood ([3]; 96 h p.i.)?
A: 210 ± 35

Q: And the Tumor-to-kidney ([3]; 96 h p.i.)?
A: 25 ± 2

Q: And the Tumor-to-liver ([3]; 96 h p.i.)?
A: 263 ± 42

Q: And the “PC-3 flu Tumor” value ([3]; 96 h p.i.)?
A: 0.15 ± 0.02 % IA/g

Q: What about the “PC-3 PIP Tumor” value ([3]; 96 h p.i.) of the same molecule?
A: 57±9 % IA/g
